System: Methylorubrum extorquens AM1
Test: Tolerance of the strain to the inhibitory effect of itaconic acid
Type: cell-based
Conditions: itaconic acid 10 mM

C=C(CC(=O)O)C(=O)O [itaconic acid]
Tolerance to inhibitory effect of itaconic acid: highly tolerant

— patent US11208671B2, “Recombinant cell and method of producing itaconic acid” (City University of Hong Kong, priority 2019, dated 2021)
